Patent publication US12222275B2, “Methods and systems for particle characterisation by imaging free-floating particle movement in liquid enviornment” (VRIJE UNIVERSITEIT BRUSSEL, priority 2019, dated 2025)
Entries after “also recorded” stand apart in the source; their conditions may differ.

Assays:
[1] = system: C. albicans DSY294; assay: Optical nanomotion detection (ONMD) of free yeast cells, antifungal susceptibility test; type: cell-based, Candida albicans
Text: (§1) To track single cells, in the present example a cross-correlation image registration algorithm was used. The method was documented to efficiently track subtle modifications of keratin networks in living cells and displacements of myoblasts. The algorithm is based on the initial estimation of the cross-correlation peak between the first and every subsequent frame. […] Our program calculates the cell displacement for each frame and saves the trajectories of tracked cells as well as the root mean square of the displacement to an MS Excel file.
(§2) The cellular x-y movements were monitored by recording 12 s long movies (1000 frames) taken at a magnification of 400× (FIG. 13). By periodically recording these movies, temporal behavior of the cells was characterized as a function of different chemical and physical stimuli (FIG. 13A-B). To track the cellular movements of single cells, we used a cross-correlation image registration algorithm. The algorithm is based on the initial estimation of the cross-correlation peak between the first and every subsequent frame. It provides a numerical value for the image translation with a sub-pixel (sub-μm) resolution. The cell displacement for each frame, the trajectories of tracked cells (FIG. 13C) as well as the root mean square of the total displacement (FIG. 13F) were calculated. Single cell nanomotions were characterized by plotting the distribution of the displacements per frame as a violin plot (FIG. 13D). The movements of the set of 20 cells were characterized by plotting grouped cellular displacements per frame as violin plots and the total displacements of 20 cells over 1000 frames as box-and-whisker plots (FIG. 13E).
(§3) Ten μl of each yeast cell culture was dispensed in one of the microwells, using a 4 Well FulTrac micro-Insert (ibidi, Germany) in an imaging micro-dish (Ibidi, Germany). The yeast cells were allowed to sediment for a period of 10 min before starting the measurement. The movement of cells was observed by taking movies of 1000 frames with a framerate of 84 fps using an EMCCD camera (Andor iXon, Oxford Instruments) using a Nikon TE-2000 microscope with a 40× objective. The Petri dish was kept at 30° C. using a microscope stage top incubator (ibidi, Germany).
(§4) The effect of ethanol on the viability of the cells was compared with cells grown in YPD medium as a reference. Therefore, first cell nanomotion videos were recorded and next (after approximately 1 min), 200 μl of ethanol (70% v/v) was added to the top chamber of the 4 micro-Insert wells. Videos were recorded every hour during a period of 5 h. Caspofungin, amphotericin B and fluconazole were used as antifungals in the antifungal susceptibility testing, i.e. to assess their effect on cell viability. Before starting the treatment with the antifungal, reference (no treatment) videos were recorded of yeast cells in YPD medium (time=0 h). Then (at time=1 min) 200 μl of a certain concentration of antifungal was added to the chamber (200 μl) above the 4 microwells. Measurements were taken every hour during a period of 5 h. As abiotic reference particles, silica microbeads (monodisperse silica standard, Whitehouse Scientific) with a diameter of 3 μm were used. The beads were dissolved in YPD medium and the measurements were performed at 30° C.
(§5) The optical nanomotion detection algorithm calculates the cell displacement for each frame and saves the trajectories of tracked cells as well as the root mean square of the displacement to a MS Excel file. The main part of the program is based on the algorithm of Guizar-Sicairos et al.[14], ported from Matlab to Python in the open source image processing library sci-kit image. The Python package nd2 reader (Verweij R, Online: http://www.lighthacking.nl/nd2reader/) was employed to import the videos in the ND2 Nikon format.

[2] = system: C. albicans; details: cited from earlier work
[3] = system: Candida lusitaniae DSY4590; details: FKS1 S638Y, erg4; ref [7] unpublished; cited from earlier work
[4] = system: C. albicans CAF2-1 wild-type strain; assay: Optical nanomotion detection (ONMD), amphotericin B dose-response; type: cell-based, Candida albicans
Text: as §1, §2, §3
as §4, with “As abiotic reference particles, silica microbeads (monodisperse silica standard, Whitehouse Scientific) with a diameter of 3 μm were used. The beads were dissolved in YPD medium and the measurements were performed at 30° C.” left out
as §5, with “The main part of the program is based on the algorithm of Guizar-Sicairos et al.[14], ported from Matlab to Python in the open source image processing library sci-kit image.” left out

[5] = system: C. glabrata DSY562; assay: Optical nanomotion detection (ONMD) of free yeast cells; type: cell-based, Candida glabrata
Text: as §1, §2
(§6) Ten μl of each yeast cell culture was dispensed in one of the microwells, using a 4 Well FulTrac micro-Insert (ibidi, Germany) in an imaging micro-dish (Ibidi, Germany). The yeast cells were allowed to sediment for a period of 10 min before starting the measurement. […]
(§7) The effect of ethanol on the viability of the cells was compared with cells grown in YPD medium as a reference. Therefore, first cell nanomotion videos were recorded and next (after approximately 1 min), 200 μl of ethanol (70% v/v) was added to the top chamber of the 4 micro-Insert wells. Videos were recorded every hour during a period of 5 h. […] Before starting the treatment with the antifungal, reference (no treatment) videos were recorded of yeast cells in YPD medium (time=0 h). […]
as §5, with “The main part of the program is based on the algorithm of Guizar-Sicairos et al.[14], ported from Matlab to Python in the open source image processing library sci-kit image.” left out

[6] = system: C. albicans DSY1024 (hypersusceptible, mutant for efflux systems); assay: Optical nanomotion detection (ONMD) of free yeast cells, antifungal susceptibility test; type: cell-based, Candida albicans
Text: as §1, §2, §3, §4, §5

[7] = system: C. albicans DSY4614 (candin-resistant clinical strain); assay: as above; type: cell-based, Candida albicans
Text: as §1, §2, §3, §4, §5

[8] = system: C. lusitaniae DSY4606; assay: Optical nanomotion detection (ONMD) of free yeast cells; type: cell-based, Candida lusitaniae
Text: as §1, §2, §6, §7
as §5, with “The main part of the program is based on the algorithm of Guizar-Sicairos et al.[14], ported from Matlab to Python in the open source image processing library sci-kit image.” left out

[9] = system: C. lusitaniae DSY4590 (resistant clinical strain); assay: as above; type: cell-based, Candida lusitaniae; details: caspofungin 10 μg/ml; FIG. 4b left panel
Text: as §1, §2, §6, §7
as §5, with “The main part of the program is based on the algorithm of Guizar-Sicairos et al.[14], ported from Matlab to Python in the open source image processing library sci-kit image.” left out

[10] = system: S. cerevisiae BY4742; assay: as above; type: cell-based, Saccharomyces cerevisiae
Text: as §1, §2, §3, §4, §5

[11] = system: S. cerevisiae; details: cited from earlier work
[12] = system: S. cerevisiae; details: cited from earlier work; remark: listed apart in the source
[13] = system: osteoblasts; details: AFM-cantilever method; cited from earlier work
[14] = caspofungin 10 μg/ml, surface-attached cells, FIG. 6, 18F-K
[15] = caspofungin treated, pooled from 1-5-hour treatments, FIG. 7d
[16] = ethanol 70% v/v, ten minutes after addition and diffusive mixing, t-test
[17] = ethanol 70%, Wilcoxon test, FIG. 15
[18] = ethanol 70%, ten minutes after addition

C[C@@H]1[C@H](O)[C@@H](C)/C=C/C=C/C=C/C=C/C=C/C=C/C=C/[C@H](O[C@@H]2O[C@H](C)[C@@H](O)[C@H](N)[C@@H]2O)C[C@@H]2O[C@](O)(C[C@@H](O)C[C@@H](O)[C@H](O)CC[C@@H](O)C[C@@H](O)CC(=O)O[C@H]1C)C[C@H](O)[C@H]2C(=O)O [amphotericin B]
concentration at which the cellular nanomotion is increased, as multiple of MIC [1]: around 10 times the MIC | concentration at which the total displacement shows an increase ([1]; after 1 h treatment, FIG. 16F): 10 µg/mL | increase of total displacement after 2 h treatment ([1]; after 2 h treatment, FIG. 16G): the increase is reduced | nanomotion signal after 1 h treatment ([1]; amphotericin B 100 μg/ml, 1 h, FIG. 2d): decreased to values close to those recorded on dead cells | time of treatment after which a significant decrease in the mean total displacement was detected ([1]; amphotericin B 100 μg/ml, t-test, FIG. 2d): 1 h | time of treatment after which a significant decrease in cellular displacements and total displacement was detected ([1]; amphotericin B 500 μg/ml, FIG. 16A, 20A): 1 h | cellular nanomotion after 1 h treatment, whole set of 20 cells ([1]; amphotericin B at a high concentration (500 μg/ml), 1 h, FIG. 20A): decreased to values close to those recorded on dead cells | reported amphotericin B MIC value, classical microtitre plate method ([2]; 'this strain' (CAF2-1 or DSY294, not clear)): 0.3 µg/mL | reported amphotericin B MIC value ([2]; C. albicans DSY strains): 0.5 µg/mL | susceptibility of the strain (characteristics) [3]: FKS1, S638Y, erg4 Resistant | concentration at which the cellular nanomotion is increased, as multiple of MIC [4]: around 10 times the MIC | concentration at which the mean total displacement increased ([4]; after 1 h treatment, FIG. 2g): 10 µg/mL | concentration at which the mean total displacement increased ([4]; after 2 h treatment, FIG. 2h): 4 µg/mL | mean total displacement at higher drug concentrations ([4]; concentrations above 10 μg/ml (1 h) or 4 μg/ml (2 h)): decreased | MIC value detected by ONMD (lowest concentration where a change in nanomotion can be observed) ([4]; total displacement of 20 cells, 'this strain'): 1 to 4 µg/mL

CC[C@H](C)C[C@H](C)CCCCCCCCC(=O)N[C@H]1C[C@@H](O)[C@@H](NCCN)NC(=O)[C@@H]2[C@@H](O)CCN2C(=O)[C@H]([C@H](O)CCN)NC(=O)[C@H]([C@H](O)[C@@H](O)c2ccc(O)cc2)NC(=O)[C@@H]2C[C@@H](O)CN2C(=O)[C@H]([C@@H](C)O)NC1=O [caspofungin]
time of treatment after which the cells were dead (nanomotion AFST) ([5]; caspofungin, FIG. 4a): 2 h | killing of cells judged by nanomotion ([6]; caspofungin 10 μg/ml, FIG. 2f, 16D): did kill | total displacement of cells attached to concanavalin A coated glass, treated versus untreated [6, 14]: no significant decrease of the total displacement; also recorded: no significant difference | additional fcrit of treated cells [6, 15]: around 2 Hz | critical frequency (fcrit) distribution of treated cells, extent of broadening [6, 15]: most extended | effect on nanomotion ([7]; caspofungin 10 μg/ml, FIG. 2e, 16E): did not affect the nanomotion | total displacement of cells attached to concanavalin A coated glass, treated versus untreated ([7]; caspofungin 10 μg/ml, surface-attached cells, FIG. 6): no significant decrease of the total displacement | critical frequency (fcrit) distribution of treated cells [7, 15]: broadening of their fcrit | total displacement of cells attached to concanavalin A coated glass, treated versus untreated [1, 14]: no significant decrease of the total displacement; also recorded: no significant difference | time of treatment after which a significant decrease in (mean) total displacement was detected ([1]; caspofungin 100 μg/ml, FIG. 2d, 16B): 1 h | critical frequency (fcrit) distribution of treated cells [1, 15]: broadening of their fcrit | killing of cells judged by nanomotion ([8]; caspofungin 10 μg/ml, FIG. 4b right panel): killed | effect of treatment on nanomotion [9]: not affected | time of treatment after which a significant decrease of the total displacement was observed ([10]; caspofungin 10 μg/ml, FIG. 5a): 3 h

CCO [ethanol]
change of total displacement [5, 16]: significant (t-test) decrease | time after which a significant decrease of the total displacement was observed [5, 17]: 60 min | displacements in the set of 20 cells [5, 18]: reduction of the displacements | higher ethanol concentrations that impair the cell membrane integrity, eventually apoptotic cell death [11]: > 10% | moderate ethanol concentrations that affect the growth rate [11]: 5-7% | time of treatment after which a significant decrease of the total displacement was measured ([1]; ethanol 70% v/v, t-test, FIG. 2c): 60 min | displacements in the set of 20 cells [1, 18]: reduction of the displacements | change of total displacement [8, 16]: significant (t-test) decrease | displacements in the set of 20 cells [8, 18]: reduction of the displacements | change of total displacement [10, 16]: significant (t-test) decrease | time after which a significant decrease of the total displacement was observed [10, 17]: 60 min | displacements in the set of 20 cells [10, 18]: reduction of the displacements

OC(Cn1cncn1)(Cn1cncn1)c1ccc(F)cc1F [fluconazole]
time of treatment after which a significant decrease in (mean) total displacement was detected ([1]; fluconazole 400 μg/ml, FIG. 2d, 16C): 1 h | fluconazole MIC value [12]: 1 to 8 µg/mL | effect on total displacement after 1 h of treatment ([10]; fluconazole 400 μg/ml, 1 h, FIG. 5b): no effect | time of treatment after which a significant decrease in total displacement was obvious ([10]; fluconazole 400 μg/ml, FIG. 5b): 5 h

cytochalasin
cellular movement after depolymerizing the actin cytoskeleton [13]: reduced cellular movement
